Measured values from the Deep4Chem optical property database.
Blank lines part the entries; values can stand above or below the compound they belong to.

Experiment: solvent given as SMILES

SMILES: COc1cc(OC)cc(C2=[O+][B-](F)(F)OC(c3ccc4cc(OC)ccc4c3)=C2)c1
- emission maximum (in CC#N): 550.5 nm
- emission maximum (in CC(C)=O): 533.32 nm
- emission maximum (in CCCCCC): 430.95 nm
- emission maximum (in Cc1ccccc1): 475.78 nm
- emission maximum (in ClCCl): 520 nm

SMILES: CC(=O)Nc1ccccc1C(=O)OC1CC(C)CCC1C(C)C (stereo not given)
- emission maximum (in C1CCCCC1): 363 nm
- emission maximum (in CC#N): 369 nm
- emission maximum (in CCO): 370 nm
- emission maximum (in Cc1ccccc1): 368 nm

SMILES: Cc1cc(C)c(B(c2ccc(-c3ccc(-c4nc5c6ccccc6c6ccccc6c5[nH]4)cc3)cc2)c2c(C)cc(C)cc2C)c(C)c1
- emission maximum (in C1CCOC1): 474 nm
- emission maximum (in CC(C)=O): 493 nm
- emission maximum (in CS(C)=O): 520 nm
- emission maximum (in Cc1ccccc1): 435 nm
- emission maximum (in ClCCl): 469 nm

SMILES: CSc1cc(-c2cc3cc4c5c(c3oc2=O)CCCN5CCC4)oc(=O)c1C#N
- emission maximum (in C1CCOC1): 580 nm
- emission maximum (in CC#N): 603 nm
- emission maximum (in CC(C)=O): 596 nm
- emission maximum (in CCOC(C)=O): 575 nm
- emission maximum (in CN(C)C=O): 612 nm
- emission maximum (in CO): 601 nm
- emission maximum (in CS(C)=O): 616 nm
- emission maximum (in Cc1ccccc1): 553 nm
- emission maximum (in ClC(Cl)Cl): 570 nm
- emission maximum (in ClCCl): 586 nm

SMILES: C(#Cc1ccc2ncsc2c1)c1ccc(N(c2ccccc2)c2ccccc2)cc1
- emission maximum (in Cc1ccccc1): 428 nm

SMILES: COc1ccc(C2=[N+]3C(=Nc4c(-c5cc(OC)c(OC)c(OC)c5)c(Br)c(-c5ccc(OC)cc5)n4[B-]3(F)F)C(c3cc(OC)c(OC)c(OC)c3)=C2Br)cc1
- emission maximum (in Cc1ccccc1): 723 nm

SMILES: CC(C)(C)c1ccc2oc3nc4oc5ccc(N(c6ccccc6)c6ccccc6)cc5c4cc3c2c1
- emission maximum (in ClC(Cl)Cl): 379 nm

SMILES: CCOC(=O)CCOc1ccc(C(c2c(C)[nH]c3ccccc23)c2c(C)[nH]c3ccccc23)cc1
- emission maximum (in C1CCCCC1): 328 nm
- emission maximum (in CC#N): 348 nm
- emission maximum (in CO): 349 nm
- emission maximum (in O): 350 nm

SMILES: Fc1nc(F)c(F)c(C#Cc2ccccc2C#Cc2c(F)c(F)nc(F)c2F)c1F
- emission maximum (in CC#N): 370 nm

SMILES: C#CCn1c2ccccc2c2cc(/C=C/C3=[N+]4C(=C(c5ccc(I)cc5)c5c(C)c(Cl)c(/C=C/c6ccc7c(c6)c6ccccc6n7CC#C)n5[B-]4(F)F)C(C)=C3Cl)ccc21
- emission maximum (in CC#N): 731 nm
- emission maximum (in CS(C)=O): 749 nm
- emission maximum (in ClC(Cl)Cl): 730 nm

SMILES: CCN(CC)c1ccc(/C=N/c2ccccc2/N=C/c2ccc(N(CC)CC)cc2O)c(O)c1
- emission maximum (in CC#N): 502 nm
- emission maximum (in CN(C)C=O): 573 nm
- emission maximum (in ClCCl): 535 nm

SMILES: O=S1(=O)c2ccccc2Oc2cc(N3c4ccccc4C4(c5ccccc53)c3ccccc3N(c3ccc5c(c3)Oc3ccccc3S5(=O)=O)c3ccccc34)ccc21
- emission maximum (in Cc1ccccc1): 439.83 nm
- emission maximum (in O=P(c1ccccc1)(c1ccccc1)c1ccccc1Oc1ccccc1P(=O)(c1ccccc1)c1ccccc1): 464.9 nm

SMILES: CCCCCCN(CCCCCC)c1ccc(C#Cc2c(F)c(F)c(F)c(F)c2F)cc1
- emission maximum (in CO): 464 nm
- emission maximum (in ClCCl): 502 nm

SMILES: CN1/C(=C/C=C(/C=C/C2=[N+](C)c3ccccc3C2(C)C)c2ccc(F)cc2)C(C)(C)c2ccccc21
- emission maximum (in CCO): 666 nm
- emission maximum (in CO): 666 nm
- emission maximum (in CS(C)=O): 669 nm
- emission maximum (in O): 662 nm

SMILES: CC(C)(C)/C=C1\C=C(c2ccccc2)C=C1c1ccccc1
- emission maximum (in C1CCOC1): 460 nm

SMILES: c1cc2cc(c1)c1cccc(c1)c1ccc3ccc4ccc(cc4c3c1)c1cccc(c1)c1cccc2c1
- emission maximum (in Cc1ccccc1): 382 nm

SMILES: Cc1cccc2[n+]1[B-](c1ccccc1)(c1ccccc1)c1cccc3c4c5c(cccc5c-2c13)[B-](c1ccccc1)(c1ccccc1)[n+]1c(C)cccc1-4
- emission maximum (in ClCCl): 611 nm

SMILES: Cc1cc(C)c(B(c2ccc(-c3ccc4ccc5cccc6ccc3c4c56)cc2)c2c(C)cc(C)cc2C)c(C)c1
- emission maximum (in Cc1ccccc1): 431 nm

SMILES: C1=Cc2nc1c(-c1ccccc1)c1ccc([nH]1)c(-c1ccccc1)c1nc(c(-c3ccccc3)c3ccc([nH]3)c2-c2ccccc2)C=C1
- emission maximum (in CC(=O)N(C)C): 650 nm
- emission maximum (in ClCCl): 651 nm

SMILES: O=P1(c2ccccc2)c2cc(N3c4ccccc4Sc4ccccc43)ccc2-c2ccc(N3c4ccccc4Sc4ccccc43)cc21
- emission maximum (in Cc1ccccc1): 557 nm
- emission maximum (in c1ccc2c(c1)c1ccccc1n2-c1ccc(-c2ccc(-n3c4ccccc4c4ccccc43)cc2)cc1): 554 nm

SMILES: c1ccc(-c2nc(-c3ccccc3)nc(-c3ccc(N4c5ccccc5CCc5ccccc54)cc3)n2)cc1
- emission maximum (in Cc1ccccc1): 422.22 nm

SMILES: CCn1c2ccccc2c2cc(-c3cc(-c4ccc5c(c4)c4ccccc4n5CC)nc(C#N)n3)ccc21
- emission maximum (in C1CCOC1): 427 nm
- emission maximum (in CCOC(C)=O): 422 nm
- emission maximum (in CN(C)C=O): 455 nm
- emission maximum (in Cc1ccccc1): 404 nm
- emission maximum (in ClCCl): 435 nm

Continued, values first:

- emission maximum (in C1CCCCC1): 371 nm
SMILES: CCC(C)(C)c1ccc2c(c1)C(CC)(CC)c1cc(-c3ccc4c(c3)C(CC)(CC)c3cc(C(C)(C)CC)ccc3-4)ccc1-2

- emission maximum (in C1CCCCC1): 427 nm
- emission maximum (in CC#N): 445 nm
- emission maximum (in CO): 440 nm
- emission maximum (in ClCCl): 443 nm
SMILES: COc1c2ccccc2c(OC)c2c1c1c(C)ccc(OC)c1n2C

- emission maximum (in CO): 641 nm
- emission maximum (in ClC(Cl)Cl): 640 nm
- emission maximum (in O): 657 nm
SMILES: CC(=O)OCCOCCN1C(=O)c2cc(NCCOCCO)c3c4c(cc(NCCOCCO)c(c24)C1=O)C(=O)N(CCOCCOC(C)=O)C3=O

- emission maximum (in CN(C)C=O): 658 nm
- emission maximum (in ClC(Cl)Cl): 651 nm
SMILES: CC(C)(C)c1cc(C(C)(C)C)c2oc3c(c2c1)C=CN1C(=O)C2=C4c5oc6c(C(C)(C)C)cc(C(C)(C)C)cc6c5C=CN4C(=O)C2=C31

- emission maximum (in C1CCOC1): 418 nm
- emission maximum (in C1COCCO1): 421 nm
- emission maximum (in CC#N): 421 nm
- emission maximum (in CCCCCO): 422 nm
- emission maximum (in CCCCO): 422 nm
- emission maximum (in CCCO): 422 nm
- emission maximum (in CCO): 421 nm
- emission maximum (in CO): 421 nm
- emission maximum (in COCCOC): 419 nm
- emission maximum (in ClC(Cl)Cl): 436 nm
- emission maximum (in ClCCl): 422 nm
- emission maximum (in OCCO): 425 nm
SMILES: O=C(O)c1c2ccccc2nc2ccccc12

- emission maximum (in O): 555 nm
SMILES: CC1(C)C(=O)C=Cc2ccc(N3CCC3)cc21

- emission maximum (in CCO): 540 nm
- emission maximum (in ClCCl): 535 nm
- emission maximum (in O): 557 nm
SMILES: O=Cc1ccc(-c2ccc(-c3nc4ccccc4s3)c(O)c2)s1

- emission maximum (in ClCCl): 704 nm
SMILES: CC(C)CCCC(C)CCN1C(=O)c2ccc3c(-c4ccccc4)c4c5ccc6c7c(ccc(c(-c8ccccc8)c4c4ccc(c2c34)C1=O)c75)C(=O)N(CCC(C)CCCC(C)C)C6=O (stereo not given)

- emission maximum (in CC#N): 418 nm
SMILES: COc1ccccc1-n1nc(C#N)c(N2CCCC2)n1

- emission maximum (in ClCCl): 515 nm
SMILES: CC(C)(C)Nc1c(-c2ccc(-c3cc(=O)cc(-c4ccccc4)o3)cc2)nc2ccccn12

- emission maximum (in O): 534 nm
SMILES: CC(=O)OCOC(=O)CN(CC(=O)OCOC(C)=O)c1ccccc1OCCOc1cc(NC(=O)c2ccc3c(c2)C(=O)OC32c3cc(Cl)c(OC(C)=O)cc3Oc3cc(OC(C)=O)c(Cl)cc32)ccc1N(CC(=O)OCOC(C)=O)CC(=O)OCOC(C)=O

- emission maximum (in ClCCl): 541 nm
SMILES: N#Cc1cc(-c2ccc(/C=C/c3ccc(N(c4ccccc4)c4ccccc4)cc3)c(C#N)c2)ccc1/C=C/c1ccc(N(c2ccccc2)c2ccccc2)cc1

- emission maximum (in ClC(Cl)Cl): 383 nm
SMILES: CC(C)(C)NC(=O)c1c([Si](C)(C)C)cc2ccc3cccc4ccc1c2c34

- emission maximum (in C1CCOC1): 418 nm
SMILES: c1ccc(-n2c(-c3c(-n4c5ccccc5c5ccccc54)cccc3-n3c4ccccc4c4ccccc43)nc3ccccc32)cc1

- emission maximum (in O): 649 nm
SMILES: Cc1ccccc1C1=C2C=CC(=[N+](C)C)C=[C]2[Ge]([CH3])([CH3])[c]2cc(N(C)C)ccc21

- emission maximum (in C1CCOC1): 601 nm
SMILES: F[B-]1(F)n2c(-c3ccccc3)cc(-c3ccccc3)c2C=C2C(c3ccccc3)=CC(c3ccccc3)=[N+]21
